The values below are quoted from earlier work in publication PMC4203335 (International Journal of Oncology, 2014).

The conditions of series [1]: mice.
Series [2] has as its system Burkitt lymphoma xenografts.
The subject of series [3] is N-Myc-induced neuroblastoma.

As to `O=c1[nH]c(=S)[nH]c(-c2ccccc2)c1Cc1c(O)ccc2ccccc12` [Cambinol], the tolerability result in series [1] is “well tolerated”. In addition, in series [2], the growth of xenografts result was “significantly inhibited”. Regarding `CN(C)CCCCC(=O)Nc1ccc(NC(=S)NC(=O)c2ccc(C(C)(C)C)cc2)cc1` [Tenovin-6], the tumorigenesis entry (in the series with melanoma; in series [3]) was “suppressed tumorigenesis” throughout. On to `CC(C)=CCC[C@]1(C)[C@@H](CC=C(C)C)C[C@@]2(CC=C(C)C)C(=O)[C@]1(C(=O)C(C)C)C(=O)C(CC=C(C)C)=C2OCC(=O)O` [aristoforin], for which the SIRT1 inhibitory activity result in the series on SIRT1 is on record as “have SIRT1 inhibitory activity”. For the compound guttiferone G, the SIRT1 inhibitory activity result in the series with SIRT1 was “have SIRT1 inhibitory activity”. Turning to inauhzin, the xenograft growth entry in the series on colon xenograft was “reduced colon xenograft growth”.
